Laboratory results as given in patent US20230051563A1, “NON-ELICITED DEDIFFERENTIATED LAVANDULA ANGUSTIFOLIA PLANT CELLS, EXTRACTS THEREOF AND COSMETIC USES THEREOF” (L'OREAL, priority 2019, published 2023).

System: isolated stratum corneum
Assay: Moisturizing potential on isolated stratum corneum by measurement with a corneometer
Settings: 5% by weight in 80%/20% water/n-propanol, 10 μL/cm2 on SC, 4 hours, 75% relative humidity, 25° C.
Protocol: A test was performed to evaluate the moisturizing potential of the extracts of the invention formulated in a vehicle (80%/20% water/n-propanol) in an amount of 5% by weight relative to the total weight of the composition. The technique makes it possible to measure the dielectric capacitance of the stratum corneum (SC), which depends on the mean dielectric permittivity value of the tissue. The dielectric permittivity varies greatly with the amount of water contained in the SC. The SC samples are conditioned at 75% relative humidity and at 25° C. before/during the measurements and the treatment. The capacitance measurement is performed using a CorneometerTM (Courage & Khazaka, Germany). […] Using at least two different batches of SC, four to five SC samples are measured per treatment. The variation in the corneometer signal (HCM) after treatment is calculated first for each SC sample: […]0). The mean of the DHCMi(vehicle) variations is then calculated for the control samples (treated with the vehicle): this mean value is subtracted from all the DHCMi(active agent) and DHCMi(positive control) variations to correct for the systematic bias. […]

Question: OCC(O)CO [Glycerol, glycerol] was tested. Which “% norm (corneometer signal variation, vehicle-corrected, normalized to glycerol)” value did it give?
Answer: Its value is 100%.
